“And” between values parts separate entries of the source, which are not always exact repeats. Equal entries are not always repeated. Strand notation (5' to 3'): a small letter for the sugar, then the base; units joined by * are phosphorothioate-linked, units joined directly phosphodiester-linked; [ ] holds rarer units or linkages, { } end groups; capitals alone tell only the bases. k = constrained ethyl (cEt); [5mC] = 5-methylcytosine; d = 2'-deoxy (DNA)
Experiments:
[1] = Tolerability in Balb/c mice, body and organ weights (Example 12); format: in vivo; conditions: male Balb/c mice, 50 mg/kg s.c. twice a week for four weeks (8 treatments), end of study (day 26)
Protocol: (§1) Groups of male Balb/c mice at 6-7 weeks of age (obtained from Taconic) were injected subcutaneously twice a week for four weeks (for a total of 8 treatments) with 50 mg/kg of modified oligonucleotides. One group of male Balb/c mice was injected with PBS. Mice were euthanized on day 26 post start of treatment (24 hours following the final administration).
(§2) Body weights of Balb/c mice were measured at the end of the study, and the average body weight for each group is presented in the table below. Modified oligonucleotides that caused any changes in organ weights outside the expected range for modified oligonucleotides were excluded from further studies.

Yap1 mRNA = assay: Antisense inhibition of human Yap1 in SNU-449 cells by modified oligonucleotides, single dose (Example 5, RTS36584); format: cell-based
Outline: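 Each modified oligonucleotide is applied by free uptake to SNU-449 cultures at 2,000 nM, and total RNA is harvested around 48 h later. Yap1 transcript, quantified with the RTS36584 set and corrected for RIBOGREEN RNA content, is given as % UTC. Asterisks mark sequences overlapping the amplicon.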

[2] = Tolerability in Balb/c mice, body and organ weights (Example 10); format: in vivo; conditions: 50 mg/kg subcutaneously twice a week for four weeks, end of study
Protocol: as §1, with “4-6” for “6-7”
as §2

[3] = Tolerability in Balb/c mice, plasma chemistry markers (Example 11); format: in vivo; conditions: 50 mg/kg subcutaneously twice a week for four weeks
Protocol: (§3) Balb/c mice were treated with modified oligonucleotides selected from studies described above and evaluated for changes in the levels of various plasma chemistry markers.
as §1, with “4-6” for “6-7”

[4] = Tolerability in CD-1 mice, plasma chemistry markers (Example 15); format: in vivo; conditions: male CD-1 mice, 50 mg/kg s.c. twice a week for four weeks (8 treatments), day 26
Protocol: CD-1 mice were treated with modified oligonucleotides selected from studies described above and evaluated for changes in the levels of various plasma chemistry markers.
Groups of four male CD-1 mice at 4-5 weeks of age (obtained from Charles River) were injected subcutaneously twice a week for four weeks (for a total of 8 treatments) with 50 mg/kg of modified oligonucleotides. One group of male CD-1 mice was injected with PBS. Mice were euthanized on day 26 post start of treatment (24 hrs following the final administration).

[5] = Tolerability in Balb/c mice, plasma chemistry markers (Example 10); format: in vivo; conditions: male Balb/c mice, 50 mg/kg subcutaneously twice a week for four weeks, day 26
Protocol: as §3
as §1, with “4-6” for “6-7”

958499 (ATTAGAGTATGTGGCA; 3-10-3 cEt gapmer, further chemistry not given here) [compound 958499]
Kidney weight [1]: 0.32 g | Liver weight [1]: 1.44 g | Spleen weight [1]: 0.14 g | body weight [1]: 23 g

958499 (kA*kT*kT*dA*dG*dA*dG*dT*dA*dT*dG*dT*dG*kG*k[5mC]*kA) [Compound 958499]
YAP1 (% UTC) (Yap1 mRNA; Table 39, SNU-449 cells, 10,000 cells per well, free uptake, 2,000 nM oligonucleotide, approx. 48 hours, RTS36584, normalized to RIBOGREEN, Yap1 mRNA relative to untreated control): 8 % UTC | YAP1 (% UTC) (Yap1 mRNA; Table 40 (separate experiment), SNU-449 cells, 10,000 cells per well, free uptake, 2,000 nM oligonucleotide, approx. 48 hours, RTS36584, normalized to RIBOGREEN, Yap1 mRNA relative to untreated control): 15 % UTC | YAP1 (% UTC) (Yap1 mRNA; Table 41, SNU-449 cells, 10,000 cells per well, free uptake, 2,000 nM modified oligonucleotide, approximately 48 hours, RTS36584, normalized to RIBOGREEN, Yap1 mRNA relative to untreated control cells): 14 % UTC | YAP1 (% UTC) (Yap1 mRNA; Table 42 (separate experiment), SNU-449 cells, 10,000 cells per well, free uptake, 2,000 nM modified oligonucleotide, approximately 48 hours, RTS36584, normalized to RIBOGREEN, Yap1 mRNA relative to untreated control cells): 15 % UTC | YAP1 (% UTC) (Yap1 mRNA; Table 43 experiment, SNU-449 cells, 10,000 cells per well, free uptake, 2,000 nM, approximately 48 hours, RTS36584, Yap1 mRNA normalized to RIBOGREEN, relative to untreated control cells): 14 % UTC | YAP1 (% UTC) (Yap1 mRNA; Table 44 experiment, SNU-449 cells, 10,000 cells per well, free uptake, 2,000 nM, approximately 48 hours, RTS36584, Yap1 mRNA normalized to RIBOGREEN, relative to untreated control cells): 9 % UTC | YAP1 (% UTC) (Yap1 mRNA; Table 45, Yap1 mRNA as percent of untreated control, SNU-449 cells, single dose): 15 % UTC | YAP1 (% UT) (Yap1 mRNA; Table 46, Yap1 mRNA as percent of untreated control, SNU-449 cells, single dose): 16 % UT | YAP1 (% UT) (Yap1 mRNA; Table 48, Yap1 mRNA level relative to untreated control, modified oligonucleotides targeting SEQ ID NO.: 1 and 2): 15 % UT | YAP1 (% UT) (Yap1 mRNA; Table 49, Yap1 mRNA level relative to untreated control, modified oligonucleotides targeting SEQ ID NO.: 1 and 2): 13 % UT | YAP1 (% UT) (Yap1 mRNA; Table 50, Yap1 mRNA remaining as percent of untreated control (UT), SNU-449 cells, single dose): 12 % UT | YAP1 (% UT) (Yap1 mRNA; Table 51, Yap1 mRNA remaining as percent of untreated control (UT), SNU-449 cells, single dose): 9 % UT | YAP1 (% UT) (Yap1 mRNA; Table 52, Yap1 mRNA, modified oligonucleotides targeting SEQ ID NO: 1 and 2): 14 % UT | YAP1 (% UT) (Yap1 mRNA; Yap1 mRNA, percent of untreated control, modified oligonucleotides targeting SEQ ID NO: 1 and 2, Table 47): 17 % UT and 10 % UT

715487 (kA*kT*kT*dA*d[5mC]*dT*dT*d[5mC]*dA*dT*dA*dG*d[5mC]*kT*kT*kA) [compound 715487]
Kidney weight [2]: 0.36 g | Liver weight [2]: 1.24 g | Spleen weight [2]: 0.14 g | body weight [2]: 23 g | ALT [3]: 59 U/L | AST [3]: 81 U/L | BUN [3]: 16 mg/dL | TBIL [3]: 0.18 mg/dL | ALB [4]: 1.9 g/dL | ALT [4]: 66 U/L | AST [4]: 113 U/L | ALT (U/L) [5]: 79 U/L | AST (U/L) [5]: 96 U/L | TBIL [5]: 0.13 mg/dL

From patent US11214803B2, “Modulators of YAP1 expression” (Ionis Pharmaceuticals, Inc., priority 2019, dated 2022)
